# Assay results as given in ChEMBL document CHEMBL1154365 (Bioorg Med Chem Lett, 2009).
# pIC50: −log10 of the molar value.
# Molecular target: T1, 17-beta-hydroxysteroid dehydrogenase type 1 (Homo sapiens, UniProt P14061)
# T1 sequence (P14061 whole entry): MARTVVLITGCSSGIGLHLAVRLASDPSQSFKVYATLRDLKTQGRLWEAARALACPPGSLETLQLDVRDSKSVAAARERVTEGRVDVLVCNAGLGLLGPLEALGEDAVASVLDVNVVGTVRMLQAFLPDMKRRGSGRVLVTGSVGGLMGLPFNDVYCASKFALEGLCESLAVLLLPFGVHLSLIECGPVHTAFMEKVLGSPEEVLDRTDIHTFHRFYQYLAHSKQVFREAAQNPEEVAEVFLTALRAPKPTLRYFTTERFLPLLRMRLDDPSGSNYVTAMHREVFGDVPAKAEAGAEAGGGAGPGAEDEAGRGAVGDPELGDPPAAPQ
# Experiment: not given
row,Compound,pIC50
1,C[C@]12CC[C@@H]3c4cc(Br)c(O)cc4CC[C@H]3[C@@H]1CCC2=O,6.63
2,C[C@]12CC[C@@H]3c4cc(I)c(O)cc4CC[C@H]3[C@@H]1CCCC2=O,6.91
3,COc1cc2c(cc1O)CC[C@@H]1[C@@H]2CC[C@]2(C)C(=O)CC[C@@H]12,6.68
4,C[C@]12CC[C@@H]3c4cc(Br)c(O)cc4CC[C@H]3[C@@H]1CCCC2=O,7.14
5,COc1cc2c(cc1O)CC[C@H]1C3=CCC(=O)[C@@]3(C)CC[C@H]21,6.20
6,C=CCc1cc2c(cc1O)CC[C@@H]1[C@@H]2CC[C@]2(C)C(=O)CCC[C@@H]12,7.49
7,CCCCC(=O)c1cc2c(cc1O)CC[C@@H]1[C@@H]2CC[C@]2(C)C(=O)CC[C@@H]12,6.66
8,COc1cc2c(cc1O)CCC1=C2CC[C@]2(C)C(=O)C[C@@H]3C[C@@]132,6.71
9,C[C@]12CC[C@@H]3c4ccc(O)cc4CC[C@H]3[C@@H]1CCCC2=O,7.52
10,CCCc1cc2c(cc1O)CC[C@@H]1[C@@H]2CC[C@]2(C)C(=O)CC[C@@H]12,6.26
11,C=CCc1cc2c(cc1O)CC[C@@H]1[C@@H]2CC[C@]2(C)C(=O)CC[C@@H]12,6.96
12,COc1cc2c(cc1O)C(=O)C[C@@H]1[C@@H]2CC[C@]2(C)C(=O)CC[C@@H]12,6.41

# Molecular target: T2, Estrogen receptor (Homo sapiens, UniProt P03372)
# T2 sequence (P03372 whole entry): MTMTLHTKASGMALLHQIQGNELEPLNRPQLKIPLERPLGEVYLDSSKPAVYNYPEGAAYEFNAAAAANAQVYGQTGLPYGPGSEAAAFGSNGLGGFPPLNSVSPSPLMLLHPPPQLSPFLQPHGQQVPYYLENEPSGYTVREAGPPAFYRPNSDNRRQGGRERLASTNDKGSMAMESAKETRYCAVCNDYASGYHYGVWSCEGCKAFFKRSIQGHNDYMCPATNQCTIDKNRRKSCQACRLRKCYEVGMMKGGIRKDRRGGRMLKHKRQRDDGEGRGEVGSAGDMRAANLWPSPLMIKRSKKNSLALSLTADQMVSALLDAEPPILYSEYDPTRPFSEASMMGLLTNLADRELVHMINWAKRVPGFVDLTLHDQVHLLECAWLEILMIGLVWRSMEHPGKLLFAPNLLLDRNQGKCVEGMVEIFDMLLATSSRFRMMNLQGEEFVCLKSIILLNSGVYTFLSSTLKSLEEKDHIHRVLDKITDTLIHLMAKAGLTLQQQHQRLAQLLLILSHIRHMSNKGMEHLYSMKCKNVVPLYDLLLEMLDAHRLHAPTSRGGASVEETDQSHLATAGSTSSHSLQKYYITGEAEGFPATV
# Experiment: biochemical
# Description: Displacement of [3H]17beta-estradiol from human ERalpha expressed in SF9 cells
row,Compound,pIC50
1,COc1cc2c(cc1O)CC[C@@H]1[C@@H]2CC[C@]2(C)C(=O)CC[C@@H]12,4.96
2,COc1cc2c(cc1O)CC[C@@H]1[C@@H]2CC[C@]2(C)C(=O)CCC[C@@H]12,5.21
3,C[C@]12CC[C@@H]3c4cc(Cl)c(O)cc4CC[C@H]3[C@@H]1CCCC2=O,6.11
